From patent publication US4716153A, “Stable oral preparation of macrolide antibiotics and method for stabilizing the same” (priority 1982, dated 1987)

Legend:
Type in all cases: physicochemical
[1] = Elution rate in aqueous solutions of various pH and physiological saline solution
Description: After 40 ml of Japan Pharmacopoeia 1st solution (pH 1.2) was placed in a vessel whose temperature was kept constant in a thermostat at 37° C., 200 mg of TMS-19-Q was added and the mixture was stirred by a magnetic stirrer. […] Then, Japan Pharmacopoeia 2nd solution were mixed with the 1st solution, and by using aqueous solutions whose pH values were adjusted to be 2, 3, 4 and 5 and a physiological saline solution, respectively, elution rate of each thereof was measured.
To 40 ml of Japan Pharmacopoeia 1st solution (pH 1.2), 120 ml of water was added, and after the solution was kept in a constant temperature bath controlled at 37° C., 200 mg of midecamycin was added, and the mixture was stirred by a magnetic stirrer. Then, 5 ml aliquots of the solution were sampled in a lapse of time (at 5 minutes, 15 minutes and 30 minutes), and absorbances were measured (wavelength: 232 nm) and elution rate were calculated. Then, Japan Pharmacopoeia 1st solution and Japan Pharmacopoeia 2nd solution were mixed to prepare aqueous solutions whose pH values were adjusted to be 2, 3, 4 and 5, respectively. By using these solutions and physiological saline solution, the elution rates were calculated following the same procedures as those indicated above.
By following the same procedures and under the same conditions as those of Example 31, elution rates of 9-propionyljosamycin were measured.
By following the same procedures and under the same conditions as those of Example 31, elution rates of josamycin were measured.
In addition to the conditions of Example 31, Japan Pharmacopoeia 1st solution and Japan Parmacopoeia 2nd solution were mixed to prepare an aqueous solution having pH of 2.5, and following the same procedures as those of Example 31, elution rates of 9,3"-diacetylmidecamycin were measured.

[2] = Elution rate of TMS-19-Q with glycine and citric or tartaric acid in diluted physiological saline solution; settings: for elution rate with 40 mg or more of citric acid: citric acid 40 mg or more, saline + water
Description: To 40 ml of physiological saline solution 120 ml of water was added, and after the solution was placed in a vessel whose temperature was kept constant in a thermostat at 37° C., 200 mg of TMS-19-Q, 340 mg of glycine and 0-80 mg of citric acid were added, and the mixture was stirred by a magnetic stirrer. Then sampling thereof was conducted in a lapse of time (at 5 minutes, 15 minutes and 30 minutes) to observe absorbance (wavelength: 232 nm) and elution rate was calculated.
To 40 ml of physiological saline solution 120 ml of water was added, and after the solution was kept in a vessel whose temperature was kept constant in a thermostat controlled at 37° C., 200 mg of TMS-19-Q, 340 mg of glycine and 0-80 mg of tartaric acid were added, and the same procedures as those of Example 27 were followed to examine the elution rate of TMS-19-Q.

[3] = Stability in Japan Pharmacopoeia 1st solution (pH 1.2) at 37° C., with or without stabilizer (TLC densitometry, 232 nm)
Text: The stabilizers showing pH 3-10 used in the invention may be substances having a buffering or antacid action and showing pH 3-10, preferably 5.5-6.5. These are, for example, neutral amino acids or their basic salts, basic salts of acidic amino acids, basic amino acids,basic salts of organic carboxylic acids,basic salts of polybasic organic carboxylic acids, basic salts of uronic acid or inorganic salt antacids. The neutral amino acids or basic salts thereof include glycine, alanine, aminobutyric acid, proline, leucine, isoleucine, methionine, threonine, serine, valine, or their aluminium salts, for example aluminium glycinate. Among these, glycine, alanine and aluminium glycinate, both of which show pH 5.5-6.5, are preferable. The basic salts of acidic amino acid include monobasic salts such as a monosodium, monopotassium or magnesium salt of glutaminic or aspartic acid. Among these monobasic salts, monosodium glutamate or monosodium aspartate is preferable. The basic amino acids include arginine, glutamine, asparagine, citrulin, tryptophane and histidine. Especially, histidine is preferable. The basic salts of monobasic organic carboxylic acid include basic salts such as sodium, potassium, magnesium or aluminium salts of saturated monobasic organic carboxylic acids such as acetic acid and propionic acid, of unsaturated monobasic organic acids such as acrylic acid, crotonic acid and vinylacetic acid, and of other monobasic organic acids such as lactic acid, pyruvic acid, glyceric acid and acetoacetic acid. The basic salts of polybasic organic carboxylic acid include mono-, di- or tri-sodium, potassium, magnesium, calcium or aluminium salts of saturated polybasic organic carboxylic acids such as oxalic acid, malonic acid, succinic acid, glutaric acid, adipic acid and pimelic acid, of unsaturated polybasic organic carboxylic acids such as maleic acid and fumaric acid, and of other polybasic organic carboxylic acids such as meso-oxalic acid, malic acid, oxalacetic acid and citric acid. Among these, trisodium citrate is preferable. The basic salts of uric acids include sodium salts of glucuronic acid, galacturonic acid or their polymers such as alginic acid or peptic acid and dihydroxyaluminium aminoacetate sodium alginate. The inorganic salt antacids include calcium hydrogenphosphate, disodium hydrogenphosphate, dipotassium hydrogenphosphate, magnesium hydrogenphosphate, calcium carbonate, sodium carbonate, potassium carbonate, sodium hydrogen carbonate, aluminium carbonate, magnesium carbonate, potassium metasilicate, magnesium aluminate metasilicate, sodium metasilicate, synthetic aluminium silicate, magnesium silicate, aluminium silicate, magnesium aluminate silicate, magnesium-bismuth aluminate silicate, magnesium oxide, alumina-magnesium hydroxide, magnesium peroxide, magnesium hydroxide, aluminium hydroxide, synthetic hydrotarphite, aluminium phosphate and others. Especially, calcium phosphate and magnesium phosphate are preferable. Each of these stabilizers may be used alone or in the form of a mixture. […] A method for stabilization of 16-membered ring macrolide antibiotics of the present invention will be described in detail. The afore-mentioned various 16-membered ring macrolide antibiotics, for example 9-hydroxy 16-membered ring macrolides such as midecamycin, 3"-propionylleucomycin A5 and josamycin and 9-acyloxy 16-membered ring macrolides such as 9,3"-diacetylmidecamycin and 9-propionyljosamycin show extremely poor residual rates when added to an acidic solution of the Japanese Pharmacopoeia lst liquid (pH 1.2) and allowed to stand. That is, the 9hydroxy 16-membered ring maclorides decompose in a short time to by-produce their iso, demycarosyl and/or isodemycarosyl forms. The 9-acyloxy 16-membered ring macrolides decompose, too, to by-produce their 9-deacyl, 9-deacyl-iso, demycarosyl, 9-deacyl-demycarosyl or 9-deacyl-iso-demycarosyl forms. […]

elution rate, pH 1.2, 2 and 3 ([1]; initial pH 1.2, 2 and 3, after 15-minute stirring, 37° C.): ≥ 90% | elution rate, pH 4 and 5 ([1]; initial pH 4 and 5, after 15-minute stirring, 37° C.): 40-45% | elution rate in pH 1.2-3 acidic aqueous solution (summary) ([1]; pH 1.2-3, general description): more than 95% | elution rate in pH 4-5 weak acidic aqueous solution (summary) ([1]; pH 4-5, general description): less than 50% | elution rate, physiological saline solution ([1]; physiological saline solution, after 15-minute stirring, 37° C.): 10% | elution rate in physiological saline solution (summary) ([1]; physiological saline solution, general description): less than 15% | time within which elution was nearly completed ([1]; solutions whose pH is equal to or less than 4.5): ≤ 15 min | elution rate with 0, 10 or 20 mg of citric acid ([2]; 200 mg potency, 340 mg glycine, pH 5.87, 5.51, 5.18): less than 60% | elution rate with 20 mg or 10 mg of citric acid ([2]; 340 mg glycine, citric acid 20 mg or 10 mg, after 15-minute stirring): 45-55% | elution rate with 40 mg or more of citric acid ([2]; 340 mg glycine): ≥ 95% | elution rate with 40 mg or more of citric acid ([2]; 340 mg glycine, listed as 3"-propionylleucomycin A5): more than 95% | elution rate with 0 mg of citric acid ([2]; 340 mg glycine, no citric acid, after 15-minute stirring): 10% | elution rate with 0 mg of tartaric acid ([2]; 340 mg glycine, no tartaric acid, after 15-minute stirring): 10% | elution rate with 20 mg or 10 mg of tartaric acid ([2]; 340 mg glycine, tartaric acid 20 mg or 10 mg, after 15-minute stirring): 40-55% | elution rate with 40 mg or more of tartaric acid ([2]; 340 mg glycine, tartaric acid 40 mg or more, value at 15 minutes): ≥ 95% | time within which elution was nearly completed (citric acid) ([2]; citric acid, solutions whose pH is equal to or less than 4.23): ≤ 15 min | time within which elution was nearly completed (tartaric acid) ([2]; tartaric acid, solutions whose pH is equal to or less than 4.09): ≤ 15 min | improvement of stability compared with control, 30 minutes ([3]; 150 mg of glycine, value at 30 minutes): 30% | stability in 1st solution (in words) ([3]; 1st solution pH 1.2, no stabilizer): extremely unstable | stability with tri-sodium citrate (in words) ([3]; 150-300 mg of tri-sodium citrate, 1st solution): very much enhanced | stability with calcium phosphate (in words) ([3]; 150-400 mg of calcium phosphate, 1st solution): very much enhanced | stability with glycine (in words) ([3]; 150-900 mg of glycine, 1st solution): stabilized well | stability with L-aspartic acid monosodium salt (in words) ([3]; 200-500 mg of Asp.Na, 1st solution): very much enhanced | stability with monosodium glutamate (in words) ([3]; 200-500 mg of Glu.Na, 1st solution): very much enhanced | degraded at 0.5 h ([3]; jp 1st solution, 1st solution pH 1.2, 37° C., 30 minutes, no stabilizer, read-out: decomposites (balance), 30 minutes): 39.5% | remaining at 0.5 h ([3]; jp 1st solution, 1st solution pH 1.2, 37° C., 30 minutes, no stabilizer, read-out: residual amount after contact with 1st solution, 30 minutes): 60.5% | degraded at 1 h ([3]; jp 1st solution, 1st solution pH 1.2, 37° C., 60 minutes, no stabilizer, read-out: decomposites (balance), 60 minutes): 41.4% | remaining at 1 h ([3]; jp 1st solution, 1st solution pH 1.2, 37° C., 60 minutes, no stabilizer, read-out: residual amount after contact with 1st solution, 60 minutes): 58.6% | stability with a larger amount of glycine (in words) ([3]; larger amount of glycine (up to 900 mg)): hardly decomposed
Structure (SMILES): CCCC(=O)OC1C(C)OC(OC2C(C)OC(OC3C(CC=O)CC(C)C(O)/C=C/C=C/CC(C)OC(=O)CC(O)C3OC)C(O)C2N(C)C)CC1(C)OC(=O)CC (centres unmarked) [TMS-19-Q, 3"-propionyl leucomycin A5]
